Reference: patent US20230002324A1, “NAPHTHOQUINONE DERIVATIVES FOR TREATMENT OF OXIDATIVE STRESS DISORDERS” (PTC THERAPEUTICS, INC., priority 2019, published 2023)
pEC50: −log10 of the molar value.

system: normal human fibroblasts (NHF, GM21811); assay: NHF GM21811 RSL3 challenge cell survival (rescue) assay; assay type: cell-based; conditions: Fibroblast, NHF cells, RSL3 2 micromolar, 48 h, Cell Titer Glo, read-out: NHF GM21811 RSL3 Survival EC50
Description: (§1) In neuronal cells excess extracellular glutamate inhibits the cystine/glutamate antiporter leading to intracellular cysteine depletion, GSH depletion, reactive oxygen species (ROS) production and cell death, a phenomenon termed oxidative glutamate toxicity, oxytosis, or ferroptosis. […] Q7 cells (ST HDH Q7/7; immortalized mouse striatal cells) challenged with cystine-free media or the selective, irreversible GPX4 inhibitor, methyl (1S,3R)-2-(2-chloroacetyl)-1-(4-(methoxycarbonyl)phenyl)-2,3,4,9-tetrahydro-1H-pyrido[3,4-b]indole-3-carboxylate (hereafter referred to as RSL3), recapitulate this phenotype, as do normal human fibroblasts (NHF) challenged with RSL3. An initial screen was performed to identify compounds effective in rescuing Q7 and/or NHF cells from death resulting from cystine deprivation or RSL3 challenge. This method is further described in Yonezawa et al., J. Neurochem 67, 566-573 (1996), Li et al., J Neurosci., 23, 5816-5826 (2003), Yang and Stockwell, Chem Biol., 15: 234-45 (2008), and Yang et al., Cell 156, 317-331 (2014). See also Hinman A, Holst C R, Latham J C, et al. Vitamin E hydroquinone is an endogenous regulator of ferroptosis via redox control of 15-lipoxygenase. PLoS One. 2018; 13(8):e0201369. Published 2018 Aug. 15. doi:10.1371/journal.pone.0201369; and Kahn-Kirby A H, Amagata A, Maeder C I, et al. Targeting ferroptosis: A novel therapeutic strategy for the treatment of mitochondrial disease-related epilepsy. PLoS One. 2019; 14(3):e0214250. Published 2019 Mar. 28. doi:10.1371/journal.pone.0214250.
(§2) DMEM (Catalog no. 11995-040), DMEM without Cystine (Catalog no. 21013-024), DMEM without Glucose (Catalog A1443001), PBS (Phosphate buffered saline), Penicillin-streptomycin mix, L-Glutamine, Glucose, Phenol Red, and Pyruvate were purchased from ThermoFisher Scientific (Gibco). Fetal Bovine Serum was obtained from Mediatech, Inc., or Sigma Aldrich. Mouse striatum derived ST HDH Q7/7 (Q7) and normal human skin fibroblast (NHF, product number GM21811) cells were obtained from the Coriell Institute. Methionine and Vitamin K2 were purchased from Sigma Aldrich. RSL3 was synthesized as previously described (see e.g. US Patent Publication US2010/0081654). Cell Titer Glo 2.0 was purchased from Promega. Q7 cell culture medium (Q7 growth medium) was made by combining 50 mL Fetal Bovine Serum, 100 U/mL penicillin, and 100 microgram/mL streptomycin; DMEM was added to make the volume up to 500 mL. Assay medium for the Cystine Deprivation assay was prepared by combining 50 mL Fetal Bovine Serum, 100 U/mL penicillin, 100 microgram/mL streptomycin, 4 mM L-Glutamine, 1 mM Pyruvate and 30 mg/L Methionine; DMEM without Cystine was added to make the volume up to 500 mL. NHF cell culture medium (NHF growth medium) was made by combining 50 mL Fetal Bovine Serum, 100 U/mL penicillin, 100 microgram/mL streptomycin, 2.8 mL 20% Glucose solution (final concentration 6 mM), L-glutamine (final concentration 2 mM), phenol red (final concentration 15 mg/L); DMEM without Glucose was added to make the volume up to 500 mL. Assay medium for the RSL3 challenge assay was identical to Growth medium. While not in use during the course of the experiments, these solutions were stored at 4° C. The cells were grown in 150-cm^2 tissue culture-treated flasks. Every third or fourth day, the cells were sub-cultured by trypsinization and re-seeded at a cell density of 600,000 (Q7) or 300,000 (NHF) cells per flask.
(§3) Q7 or NHF cells were cultured routinely as described herein. For 384-well cell survival assays, cells were seeded in clear bottom, black wall 384-well tissue culture-treated polystyrene plates by re-suspending a cell suspension at a density of 50,000 cells/mL in growth medium, then dispensing 60 microliters of cell suspension per well using either an electronic multichannel pipette or a Multidrop™ Combi Reagent Dispenser (ThermoFisher Scientific), corresponding to 3,000 cells/well. […]

Row | Compound | pEC50
1 | [2H]C([2H])([2H])C1=C(Cc2ccc(C(F)(F)F)c(C(N)=O)n2)C(=O)c2c(F)ccc(F)c2C1=O [Example 126, 6-((5,8-difluoro-3-(methyl-d3)-1,4-dioxo-1,4-dihydronaphthalen-2-yl)methyl)-3-(trifluoromethyl)picolinamide] | > 7.30
2 | CCC1=C(Cc2ccc(C(F)(F)F)cn2)C(=O)c2c(ccc(F)c2F)C1=O [Example 63, 2-ethyl-5,6-difluoro-3-((5-(trifluoromethyl)pyridin-2-yl)methyl)naphthalene-1,4-dione] | > 7.30
3 | CCC1=C(Cc2ccc(OC(F)(F)F)cn2)C(=O)c2c(F)ccc(F)c2C1=O [Example 138, 2-ethyl-5,8-difluoro-3-((5-(trifluoromethoxy)pyridin-2-yl)methyl)naphthalene-1,4-dione] | > 7.30
4 | CCC1=C(Cc2ccc(C(C)(F)F)cn2)C(=O)c2ccccc2C1=O [Example 137, 2-((5-(1,1-difluoroethyl)pyridin-2-yl)methyl)-3-ethylnaphthalene-1,4-dione] | > 7.30
5 | COc1cnc(CC2=C(C)C(=O)c3ccccc3C2=O)cc1C(F)(F)F [Example 145, 2-((5-methoxy-4-(trifluoromethyl)pyridin-2-yl)methyl)-3-methylnaphthalene-1,4-dione] | > 7.30
6 | CCC1=C(Cc2ccc(CC(F)(F)F)cn2)C(=O)c2c(F)ccc(F)c2C1=O [Example 133, 2-ethyl-5,8-difluoro-3-((5-(2,2,2-trifluoroethyl)pyridin-2-yl)methyl)naphthalene-1,4-dione] | > 7.30
7 | CC1=C(Cc2ccc(C(F)(F)F)c[n+]2[O-])C(=O)c2ccccc2C1=O [Example 150, 2-((3-methyl-1,4-dioxo-1,4-dihydronaphthalen-2-yl)methyl)-5-(trifluoromethyl)pyridine 1-oxide] | > 7.30
8 | CCC1=C(Cc2ccc(C(C)(F)F)cn2)C(=O)c2c(F)ccc(F)c2C1=O [Example 62, 2-((5-(1,1-difluoroethyl)pyridin-2-yl)methyl)-3-ethyl-5,8-difluoronaphthalene-1,4-dione] | > 7.30
9 | N#Cc1nc(CC2=C(C3CC3)C(=O)c3cc(F)ccc3C2=O)ccc1C(F)(F)F [Example 96, 6-((3-cyclopropyl-6-fluoro-1,4-dioxo-1,4-dihydronaphthalen-2-yl)methyl)-3-(trifluoromethyl)picolinonitrile] | > 7.30
10 | CCC1=C(Cc2ccc(C(F)(F)C(F)(F)F)cn2)C(=O)c2ccccc2C1=O [Example 148, 2-ethyl-3-((5-(perfluoroethyl)142yridine-2-yl)methyl)naphthalene-1,4-dione] | > 7.30
11 | CCC1=C(Cc2ncc(C(F)(F)F)cc2F)C(=O)c2c(F)cc(F)cc2C1=O [Example 64, 2-ethyl-5,7-difluoro-3-((3-fluoro-5-(trifluoromethyl)pyridin-2-yl)methyl)naphthalene-1,4-dione] | > 7.30
12 | CCC1=C(Cc2cc(C(F)(F)F)c(C)cn2)C(=O)c2ccccc2C1=O [Example 149, 2-ethyl-3-((5-methyl-4-(trifluoromethyl)pyridin-2-yl)methyl)naphthalene-1,4-dione] | > 7.30
13 | CCC1=C(Cc2ccc(C(F)(F)F)c(OC)n2)C(=O)c2c(F)ccc(F)c2C1=O [Example 152, 2-ethyl-5,8-difluoro-3-((6-methoxy-5-(trifluoromethyl)pyridin-2-yl)methyl)naphthalene-1,4-dione] | > 7.30
14 | CCC1=C(Cc2cc(C(F)(F)F)c(C)cn2)C(=O)c2c(F)ccc(F)c2C1=O [Example 66, 2-ethyl-5,8-difluoro-3-((5-methyl-4-(trifluoromethyl)pyridin-2-yl)methyl)naphthalene-1,4-dione] | > 7.30
15 | CCC1=C(Cc2cc(C)c(F)cn2)C(=O)c2c(F)ccc(F)c2C1=O [Example 135, 2-ethyl-5,8-difluoro-3-((5-fluoro-4-methylpyridin-2-yl)methyl)naphthalene-1,4-dione] | > 7.30
16 | CCC1=C(Cc2ccc(F)cn2)C(=O)c2c(F)cc(F)cc2C1=O [Example 92, 2-ethyl-5,7-difluoro-3-((5-fluoropyridin-2-yl)methyl)naphthalene-1,4-dione] | > 7.30
17 | CCC1=C(Cc2cc(C(F)(F)F)c(OC)cn2)C(=O)c2ccccc2C1=O [Example 147, 2-ethyl-3-((5-methoxy-4-(trifluoromethyl)141yridine-2-yl)methyl)naphthalene-1,4-dione] | > 7.30
18 | O=C1C(C2CC2)=C(Cc2ccc(C(F)(F)F)cn2)C(=O)c2c(F)cc(F)cc21 [Example 65, 2-cyclopropyl-5,7-difluoro-3-((5-(trifluoromethyl)pyridin-2-yl)methyl)naphthalene-1,4-dione] | > 7.30
19 | CCC1=C(Cc2ncc(C(F)(F)F)cc2Cl)C(=O)c2c(F)cc(F)cc2C1=O [Example 94, 3-((3-chloro-5-(trifluoromethyl)pyridin-2-yl)methyl)-2-ethyl-5,7-difluoronaphthalene-1,4-dione] | > 7.30
20 | O=C1C(Cc2ccc(C(F)(F)F)cn2)=C(C2CC2)C(=O)c2c(F)ccc(F)c21 [Example 91, 2-cyclopropyl-5,8-difluoro-3-((5-(trifluoromethyl)pyridin-2-yl)methyl)naphthalene-1,4-dione] | > 7.30
21 | CCC1=C(Cc2ccc(C(F)(F)C(F)(F)F)cn2)C(=O)c2c(F)ccc(F)c2C1=O [Example 141, 2-ethyl-5,8-difluoro-3-((5-(perfluoroethyl)pyridin-2-yl)methyl)naphthalene-1,4-dione] | > 7.30
22 | CCC1=C(Cc2ccc(OC(F)(F)F)cn2)C(=O)c2c(F)cc(F)cc2C1=O [Example 142, 2-ethyl-5,7-difluoro-3-((5-(trifluoromethoxy)pyridin-2-yl)methyl)naphthalene-1,4-dione] | > 7.30
23 | N#Cc1nc(CC2=C(C3CC3)C(=O)c3cc(F)cc(F)c3C2=O)ccc1C(F)(F)F [Example 95, 6-((3-cyclopropyl-6,8-difluoro-1,4-dioxo-1,4-dihydronaphthalen-2-yl)methyl)-3-(trifluoromethyl)picolinonitrile] | > 7.30
24 | CCC1=C(Cc2ccc(C(F)F)cn2)C(=O)c2c(F)cc(F)cc2C1=O [Example 67, 3-((5-(difluoromethyl)pyridin-2-yl)methyl)-2-ethyl-5,7-difluoronaphthalene-1,4-dione] | > 7.30

system: Q7 cells (ST HDH Q7/7; immortalized mouse striatal cells); assay: Q7 Cystine Deprivation cell survival (rescue) assay; assay type: cell-based; conditions: Q7 cells, cystine-free medium, 18 h, Cell Titer Glo, 50% relative viability vs Vitamin K2 (1 micromolar), read-out: Q7 Cystine Deprivation Survival EC50
Description: as §1, §2, §3

Row | Compound | pEC50
25 | CC1=C(Cc2ncc(C(F)(F)F)cn2)C(=O)c2ccccc2C1=O [Example 19, 2-methyl-3-((5-(trifluoromethyl)pyrimidin-2-yl)methyl)naphthalene-1,4-dione] | > 7.30
26 | CCCC1=C(Cc2ccc(C(F)(F)F)nn2)C(=O)c2ccccc2C1=O [Example 107, 2-propyl-3-((6-(trifluoromethyl)pyridazin-3-yl)methyl)naphthalene-1,4-dione] | > 7.30
27 | COc1ccc2c(c1)C(=O)C(Cc1ccc(C(F)(F)F)cn1)=C(C)C2=O [Example 36, 6-methoxy-2-methyl-3-((5-(trifluoromethyl)pyridin-2-yl)methyl)naphthalene-1,4-dione] | > 7.30
28 | CC1=C(Cc2ccc(C(F)(F)F)cn2)C(=O)c2cc(F)ccc2C1=O [Example 45, 6-fluoro-2-methyl-3-((5-(trifluoromethyl)pyridin-2-yl)methyl)naphthalene-1,4-dione] | > 7.30
